Experimental data published in patent US20140088192A1, “SUBCUTANEOUSLY INFUSIBLE LEVODOPA PRODRUG COMPOSITIONS AND METHODS OF INFUSION” (SynAgile Corporation, priority 2010, published 2014).

Tests used:
[1] = Estimated / projected shelf life and operational life (time to LD saturation); settings: for storage time without LD precipitation: 2.5±0.5 M aqueous; for time remaining precipitate free: after 18 months refrigerated storage
Description: To minimize hydrolysis and LD precipitation, the LDE salt can be stored in its dry solid form, and dissolved in water or in an aqueous solution prior to use. Alternatively and preferably, the LDE salt can be dissolved, and stored as an aqueous solution at a pH and at a temperature where the rate of hydrolysis is slow. […] The operational life, meaning the life of the infused solution, is similarly pH dependent. The pH of a subcutaneously infused solution can be generally greater than about 4.0. […] To extend the shelf life, the solution may be optionally stored at a temperature below about 25° C., for example it may be refrigerated at about 5±3° C.
After flushing with nitrogen, the solution was kept for 7 days at 23±2° C. in a vial sealed with a grey elastomeric, substantially oxygen impermeable septum. […] An operational life of 4 days suffices for infusion.
After flushing with nitrogen, the solution was kept in a vial sealed with a grey, elastomeric oxygen impermeable septum.
After flushing with nitrogen, the solution was kept in a vial sealed with a grey elastomeric, oxygen impermeable septum.

volunteer = assay: Intramuscular / subcutaneous infusion of LDEE.HCl in human volunteers, local tolerability; format: in vivo
Description: The flow rate was 0.6 mL/h. […] The protrusion disappeared after 2 days.
A healthy volunteer took one Lodosyn (carbidopa), 25 mg pill, at each of the morning, midday and evening of the day preceding the infusion, and in the morning, midday and evening of the day of the infusion. After adjusting the pH of a stored solution of pH 2.4 and 2.5 mL volume of 2.9 M LDEE.HCl by adding to it 0.16 mL of 1.5 M trisodium citrate solution to about pH 4.6±0.1, a 2.7 M LDEE.HCl solution was obtained. Using a Medtronic Minimed Paradigm 723, a Medtronic Minimed Silhouette, 43 inches, 17 mm cannula infusion set, a Medtronic Minimed Sil-Serter infusion set insertion system, the volunteer infused 0.67 mL of the 2.7 M LDEE.HCl solution into their abdomen over a period of 9 hours. The infusion site was 7-8 cm below the ribs. The initial 4 hr infusion was at a rate of 0.062 mL/hr (37.5 mg of LDEE/hr), followed by 0.082 mL/hr (50 mg of LDEE/hr) in the next 5 hours. The total infused volume contained 406 mg LDEE, the equivalent to 356 mg L-DOPA.
A healthy volunteer took one Lodosyn (carbidopa), 25 mg pill, at each of the evening preceding the infusion, and in the morning, midday and evening of the day of the infusion. After adjusting the pH to about pH 4.7±0.3 of a stored solution of pH 2.4 and 2.5 mL volume of 2.9 M LDEE.HCl by adding 0.16 mL of 1.5 M trisodium citrate solution, a 2.7 M LDEE.HCl solution was obtained. Using a Medtronic Minimed Paradigm 723, a Medtronic Minimed Silhouette, 43 inches, 17 mm cannula infusion set, and a Medtronic Minimed Sil-Serter infusion set insertion system, the a volunteer infused 0.67 mL of the 2.7 M LDEE.HCl solution into the frequently exercised and occasionally massaged outside of the upper arm over a period of 9 hours. The initial 4 hr infusion was at a rate of 0.062 mL/hr (37.5 mg of LDEE/hr), followed by 0.082 mL/hr (50 mg of LDEE/hr) in the next 5 hours. The total infused volume contained 400 mg LDEE, the equivalent to 351 mg L-DOPA.
A healthy volunteer took one Lodosyn (carbidopa), 25 mg pill, at each of the evening of the day preceding the infusion, and in the morning, mid-day and evening of the day of the infusion. 1 mL of the 2.9 M LDEE.HCl stored solution of pH 2.4, 0.04 mL of a 1.5 M trisodium citrate solution and 2 mL sterile water were syringed into the reservoir of a Medtronic Minimed Paradigm 723 pump. This pump and a Medtronic Minimed Silhouette, 43 inches, 17 mm cannula infusion set inserted with a Medtronic Minimed Sil-Serter infusion set insertion system were used. The volunteer infused 1.85 mL, or 396 mg LDEE (equivalent to 347 mg L-DOPA) of the now 3× diluted 0.95 M LDEE solution into their upper arm over a period of 9 hours at two rates: First near 37.5 mg/hr (0.175 mL/hr) for 4 hours then near 50 mg/hr (0.233 mL/hr) for 5 hours. During the course of the infusion the volunteer periodically exercised their arm and gently massaged the infusion site.
A healthy volunteer took one Lodosyn (carbidopa), 25 mg pill, at each of the evening of the day preceding the infusion, and in the morning, mid-day and evening of the day of the infusion. The reservoir of a Medtronic Minimed Paradigm 723 pump was primed (to assure that all of the 3 mL in the reservoir will be infused) then the reservoir was filled with 0.6 mL of the 2.9 M LDEE.HCl stored solution of pH 2.4, 0.024 mL of a 1.5 M trisodium citrate solution and 2.4 mL sterile water by syringing. The pump, a Medtronic Minimed Silhouette, 43 inches, 17 mm cannula infusion set, and a Medtronic Minimed Sil-Serter infusion set insertion system were used. The volunteer infused 3 mL, or 400 mg LDEE (equivalent to 350 mg L-DOPA) of the now 5× diluted (i.e. 0.58 M) LDEE solution into their upper arm over a period of 9 hours at a flow rate of 0.33 mL/hr. […] The infusion ended at 7:30 pm. […]

[2] = Precipitation of LD from / clarity of LDEE solutions on holding; settings: for appearance of infused solution after storage: 2.3 M
Description: 150 mg of LDEE was dissolved in 3 mL of physiological saline (0.90% weight/volume of NaCl/water) at about 23° C., then at about 37° C. an additional amount of 22 mg of LDEE was added for a total LDEE concentration of about 57.3 mg/mL or about 0.25M.
At the ambient temperature of about 23° C., 226 mg of LDEE was dissolved in 1 mL of 1 M HCl. To the formed aqueous LDEE.HCl solution an additional amount of about 184 mg LDEE was added, followed by about 0.1 mL deionized water.
At the ambient temperature of about 23° C., about 113 mg of LDEE was dissolved in 1 mL of 1 M HCl. To the formed aqueous LDEE.HCl solution an additional amount of about 87 mg LDEE was added, followed by about 0.1 mL distilled water.
At the ambient temperature of about 23° C., about 226 mg of LDEE was dissolved in 1 mL of 1 M acetic acid. To the formed aqueous LDEE acetate salt solution an additional amount of about 168 mg LDEE was added. […] The pH of the resulting suspension was about 7.01 at about 26.4° C.
1.7 g of LDEE (7.5 millimoles) was dissolved in 1.405 mL of aqueous 5M HCl, then enough trisodium citrate was added to increase the pH to 5.5.
After flushing with nitrogen, the solution was kept for 7 days at 23±2° C. in a vial sealed with a grey elastomeric, substantially oxygen impermeable septum.

[3] = Achievable concentration and density of concentrated LDEE salt solutions
Description: The pH was adjusted to 4.60 by adding 160 mg of sodium acetate.

[4] = intramuscular, right upper arm, about 0.45 mL of 2.3 M pH 4.5 over 45 min
[5] = s.c. abdomen, 0.67 mL of 2.7 M over 9 hours
[6] = s.c. exercised upper arm, 0.67 mL of 2.7 M over 9 hours
[7] = s.c. exercised upper arm, 1.85 mL of 0.95 M over 9 hours
[8] = s.c. upper arm, 3 mL of 0.58 M over 9 hours
[9] = s.c. upper arm, 10.7 mL of 0.48 M over 18 hours

SMILES: CCOC(=O)[C@@H](N)Cc1ccc(O)c(O)c1.Cl [LDEE.HCl, LDEE Hydrochloride]
- projected storage (shelf) life ([1]; 2.5 M solution at 4° C. (per Example 18)): greater than 4 years
- projected shelf life ([1]; 2.5 M solution, pH 2.3, about 4° C.): about 4.7 years
- operational life (time to LD saturation) ([1]; 2.5 M, pH 4.5 citrate, 29° C.-30° C.): 4 days
- operational life, projection ([1]; 2.5 M, pH 4.5 citrate, 37° C. body temperature): about 2 days
- operational life (time to LD saturation) ([1]; 2.5 M, pH 4.5 citrate, about 23° C.): about 9 days
- storage time without LD precipitation ([1]; pH 2.5±0.5, about 5±3° C.): about 3 years
- storage time without LD precipitation ([1]; pH about 1.5 to about 3.5, about 5±3° C.): more than 1 year
- % of the LDEE.HCl hydrolyzed at which LD saturation is reached ([1]; 2.7 M LDEE.HCl, LD saturation about 17 grams per liter): about 3.4%
- Estimated pH 2.3 storage life at 4° C. ([1]; about 2.0 M LDEE.HCl solution): 50 months
- Estimated pH 2.3 storage life at 25° C. ([1]; about 2.0 M LDEE.HCl solution): 2 months
- Estimated pH 4.5 operational life at 30° C. ([1]; about 2.0 M LDEE.HCl solution): 4 days
- Estimated pH 4.5 operational life at 37° C. ([1]; about 2.0 M LDEE.HCl solution): 2 days
- operational life ([1]; about 2.7 M, about pH 4.49, 40° C.): > 48 h
- residual operational life ([1]; after 18 months at 4° C., then operational ambient temperature): more than 3 days
- time remaining precipitate free ([1]; pH raised to about 4.2±0.3, 30° C.): more than 3 days
- time remaining precipitate free ([1]; pH raised to about 4.2±0.3, 37° C.): more than 2 days
- residual operational life ([1]; after one year at 4° C., then 23° C. ambient): greater than 4 days
- projected time free of LD precipitate ([1]; refrigerated pH 4.0 solution, 2.4 M): about 50 weeks
- time to disappearance of the protrusion (volunteer; intramuscular, about 0.45 mL of 2.3 M pH 4.5): 2 days
- local reaction after infusion (volunteer; [4]): small nodule which spread after 4 hours into an about 1 mm high, 2-3 cm radius protrusion
- pain, inflammation, color change, sensitivity at the site (volunteer; [4]): no pain, inflammation, color change or sensitivity
- pain or irritation (volunteer; s.c. abdomen, 0.24 mL of 2.3 M pH 4.5 over about 90 min in 8 boluses): felt no pain or irritation during or after the infusion
- course of induration after 24 hours (volunteer; [5]): became diffuse and partly, but not completely, subsided
- other adverse events (volunteer; [5]): no other adverse events
- swelling / induration at infusion site (volunteer; [5]): Mild swelling was observed and an induration of approximately 2.5 cm diameter developed
- pain or redness (volunteer; s.c. abdomen, 0.67 mL of 2.7 M pH about 4.6 over 9 hours, oral carbidopa): virtually no pain or redness
- course of swelling (volunteer; [6]): disappeared after a week
- other adverse events (volunteer; [6]): no other adverse events of any kind
- swelling at infusion site at end of infusion (volunteer; [6]): about 7 cm long elongated mildly swollen region
- pain or redness (volunteer; s.c. exercised upper arm, 0.67 mL of 2.7 M pH about 4.7 over 9 hours, oral carbidopa): virtually no pain or redness
- course of swelling (volunteer; [7]): disappeared gradually in about three days
- other adverse events (volunteer; [7]): no other adverse events
- swelling at infusion site at end of infusion (volunteer; [7]): very slightly swollen region of about 4 cm diameter
- pain or redness (volunteer; s.c. exercised upper arm, 1.85 mL of 0.95 M over 9 hours, oral carbidopa): no pain or redness
- adverse events (volunteer; [8]): no adverse events
- local findings at end of infusion (volunteer; [8]): very slight reddening of a 2×4 cm skin area and a very slightly harder than normal 2 cm diameter zone under the skin
- site on the following morning (volunteer; [8]): the skin and infused tissue appeared normal
- pain during infusion (volunteer; s.c. upper arm, 3 mL of 0.58 M over 9 hours, oral carbidopa): felt no pain during the infusion
- adverse events (volunteer; [9]): no adverse events
- swelling (volunteer; [9]): swelling most of which subsided within 8 hours
- time after which swelling was no longer visible (volunteer; [9]): 12 h
- pain, reddening, inflammation at end of infusion (volunteer; s.c. upper arm, 10.7 mL of 0.48 M pH 4.8-5.0 (5.1 millimoles) over 18 hours, oral carbidopa): no pain, reddening or inflammation
- appearance of infused solution after storage ([2]; citrate pH 4.5, 2.5 days at room temperature and 7 weeks in a refrigerator): colorless and clear
- appearance of infused solution after storage ([2]; citrate pH 4.5, about 3 days at room temperature and about 3 months in a refrigerator): colorless and clear
- precipitation of LD ([2]; about 0.7 M LDEE + LDEE.HCl, pH about 6.87, 37° C., 3 hours): no precipitation
- precipitation of LD ([2]; about 0.7 M LDEE + LDEE.HCl, pH about 6.87, 37° C., 16 hours): extensive precipitation of LD
- precipitation of LD ([2]; about 1.3 M LDEE + LDEE.HCl, pH about 6.75, 37° C., 3 hours): no precipitation
- precipitation of LD ([2]; about 1.3 M LDEE + LDEE.HCl, pH about 6.75, 37° C., 16 hours): extensive precipitation of LD
- concentration of aqueous solutions allowed by solubility ([3]; aqueous solution): greater than 2.5 M
- concentration of clear solution (high solubility) ([3]; pH 4.60 (sodium acetate), ambient about 23±2° C.): about 2.5 M
